Test results reported in patent US9861651B2, “Use of nicotinamide riboside to treat hearing loss” (Cornell University, priority 2012, dated 2018).

Legend:
[1] = system: P5 DIV3 rat spiral ganglia neurons; assay: Rotenone-induced neurite degeneration (neurite beading/blebbing, NF-200 stain) in spiral ganglia neuron culture; assay type: cell-based
Procedure: Dissociated spiral ganglia neurons were harvested from P5 rats. Briefly, pups were rapidly decapitated, and cochlea were dissected. The modiolus was then dissected and digested (0.1% trypsin, 0.1% collagenase, HBSS−/−) for 45 min at 37° C. Sequential trituration was performed with fire-polished pipets to release cells from the tissue, and cells were transferred to laminin/polylysine-coated 24-well plates. Neurons were incubated overnight in culture media (DMEM high glucose, N2 supplement, 10 μg/ml insulin, 25 μg/ml BDNF, 25 μg/ml NT3). To elicit neurite degeneration, cultures were incubated with rotenone (10 μM) for 2 hr in the presence/absence of 10 mM NAD+.
Spiral ganglia neuron cultures were fixed with 4% paraformaldehyde and permeabilized with 0.5% Triton X-100™/PBS for 10 min. After washing, cells were blocked with 4% donkey serum and incubated with mouse anti-NF200 (1:1000) overnight at 4° C. Neurite beading was then measured using a previously described, unbiased computerized protocol (Sasaki, Y. et al., J. Neuroscience, 29, 5525-5535 (2009)).
Axonal degeneration in a variety of neurons can be blocked by treatment with millimolar concentrations of NAD+ (Avery, M. A., et al., Current Biology, CB 22, 596-600 (2012)). […] This effect was blocked by simultaneous treatment of neurons with 10 mM NAD+. […]

[2] = system: noise-exposed C57BL6 mice; assay: Auditory brainstem response (ABR) testing of noise-induced hearing loss after 90 dB octave band noise exposure for 2 hr; assay type: in vivo; parameters: Avg. hearing loss: unit not given here; conditions: for transient threshold shift: 24 hours after noise exposure
Procedure: Auditory brainstem response testing was performed as previously described (Willott, J. F., Current Protocols in Neuroscience, 8.21B, B1-B12 (2005). Animals were tested following sedation with ketamine and xylazine (40 mg/kg and 10 mg/kg, respectively). Tone burst stimuli at 8, 16, and 32 kHz for 0.5 msec were used to elicit auditory evoked responses using an auditory brainstem recording system (Intelligent Hearing Systems, Miami, Fla.). An evoked response was determined by identifying waveforms at proper time intervals that increased in magnitude with increasing volume as described previously by Willott.
Animals were exposed to a 90 dB octave band for 2 hr in a cage placed in a soundproof chamber (MAC-2, Industrial Acoustics Company, Bronx N.Y.). The mice were able to freely move throughout the cage. The octave band was generated using ToneGen software (NCH software, Greenwood Village, Colo.) routed through an Audiosource Amp100 amplifier driving two down-facing Fostex FT-96H speakers. The sound pressure level was confirmed at 0, 30, 60, and 90 min, and again just prior to completion of sound exposure using an Extech microphone 407736.
To test whether augmented NAD biosynthesis protects from noise-induced hearing loss, auditory brainstem responses (ABR) elicited by tone burst stimuli after acoustic trauma was measured. An ABR occurs when a mouse hears the tone burst stimulus. In these experiments, acoustic trauma was elicited in mice by a 90 dB octave band noise exposure for 120 min. To quantify the degree of hearing loss, “threshold shifts” were measured. These shifts refer to the increased level of sound intensity that is required to elicit an ABR. The threshold for detecting sound stimuli is determined by exposing mice to 0.5 msec tone bursts at a specific frequency and volume. […] Transient threshold shifts (TTS) refer to a temporary hearing loss 24 hours after noise exposure, and permanent threshold shifts (PTS) refer to hearing loss that remains 2 weeks after exposure.
(§1) Nicotinamide riboside (NR) is a well-tolerated precursor of NAD+. In these experiments, NR was administered by intraperitoneal injection twice daily at 1000 mg/kg, a dose which increases tissue NAD levels by 50%, either for 5 days prior to noise exposure and 14 days after noise exposure (NR Before+ After), 5 days prior to noise exposure (NR Before), or 14 days after noise exposure (NR After). […] The hearing loss at 8000 Hz, […], and 32,000 Hz is set forth in the Table and is depicted graphically in FIGS. 4A-4C, respectively.

[3] = system: spiral ganglia neurites / inner hair cells of noise-exposed mice; assay: Retraction of spiral ganglia neurites from inner hair cells after noise exposure (cochlear immunohistology); assay type: in vivo; conditions: basal turn of the cochlea, NR before and after acoustic trauma
Procedure: Mouse cochlea were prepared as described in Whitlon, D. S. et al., Brain Research Protocols, 6, 159-166 (2001). Mouse cochlea were quickly dissected from the temporal bone following rapid decapitation. Once separated, the apex of the cochlea was gently fenestrated, and the cochlea were immediately fixed in 4% paraformaldehyde overnight at 4° C. The cochlea were then washed with three changes of PBS and incubated in a decalcification solution (10% EDTA/PBS pH 7.4) under constant rotation at 4° C. for 1 week. The decalcification solution was changed daily. Cochlea were washed in 3 changes of PBS and then treated with progressively increasing sucrose concentrations from 10-30%. The cochlea were incubated overnight in 30% sucrose at 4° C. The cochlea were incubated an additional 24 hr in OCT compound (Tissue-Tek). […]
Noise-induced hearing loss is associated with retraction of spiral ganglia neurites from the inner hair cells. As the most prominent hearing losses are seen in the portion of the auditory spectrum that contains the highest audible frequencies, the basal turn of the cochlea where this portion of the auditory spectrum is detected was focused on. […] Immunofluorescence labeling of the cochlea can readily show whether spiral ganglia neurites are forming their proper contacts with the base of inner hair cells. […]

[4] = system: tissue NAD levels; assay: Tissue NAD levels after intraperitoneal NR; assay type: in vivo; conditions: intraperitoneal injection twice daily at 1000 mg/kg
Procedure: as §1

C=C(C)[C@H]1Cc2c(ccc3c2O[C@@H]2COc4cc(OC)c(OC)cc4[C@@H]2C3=O)O1 [rotenone]
neurite degeneration, as measured by the presence of neurite blebbing ([1]; 10 μM rotenone, in as early as 2 hr): resulted in neurite degeneration

NC(=O)c1ccc[n+]([C@@H]2O[C@H](COP(=O)([O-])OP(=O)(O)OC[C@H]3O[C@@H](n4cnc5c(N)ncnc54)[C@H](O)[C@@H]3O)[C@@H](O)[C@H]2O)c1 [NAD+]
effect on rotenone-induced neurite degeneration ([1]; simultaneous treatment with 10 mM NAD+ and 10 μM rotenone, 2 hr): blocked

NC(=O)c1ccc[n+]([C@@H]2O[C@H](CO)[C@@H](O)[C@H]2O)c1 [NR, Nicotinamide riboside]
transient threshold shift ([2]; 8000 Hz, NR i.p. twice daily 1000 mg/kg): 6 dB | transient threshold shift ([2]; 16,000 Hz, NR i.p. twice daily 1000 mg/kg): 8 dB | transient threshold shift ([2]; 32,000 Hz, NR i.p. twice daily 1000 mg/kg): 16 dB | Avg. hearing loss ([2]; NR after (i.p. twice daily 1000 mg/kg, 14 days after noise), Baseline, 8 kHz): 14 | Avg. hearing loss ([2]; NR after, 1 wk post noise, 8 kHz): 17 | Avg. hearing loss ([2]; NR after, 1 wk post noise, 32 kHz): 28 | Avg. hearing loss ([2]; NR after, 2 wks post noise, 8 kHz): 18 | Avg. hearing loss ([2]; NR after, 2 wks post noise, 16 kHz): 15 | Avg. hearing loss ([2]; NR after, 2 wks post noise, 32 kHz): 28 | Avg. hearing loss ([2]; NR after, 24 h post noise, 8 kHz): 23 | Avg. hearing loss ([2]; NR after, 24 h post noise, 16 kHz): 23 | Avg. hearing loss ([2]; NR after, 24 h post noise, 32 kHz): 37 | Avg. hearing loss ([2]; NR after, Baseline, 16 kHz): 19 | Avg. hearing loss ([2]; NR after, Baseline, 32 kHz): 31 | Avg. hearing loss ([2]; NR after, Pre-noise, 8 kHz): 14 | Avg. hearing loss ([2]; NR after, Pre-noise, 16 kHz): 21 | Avg. hearing loss ([2]; NR after, Pre-noise, 32 kHz): 16 | Avg. hearing loss ([2]; NR before (i.p. twice daily 1000 mg/kg, 5 days prior to noise), Baseline, 8 kHz): 14 | Avg. hearing loss ([2]; NR before and after (i.p. twice daily 1000 mg/kg, 5 days prior to and 14 days after noise), Baseline, 8 kHz): 16 | Avg. hearing loss ([2]; NR before and after, 1 wk post noise, 8 kHz): 15 | Avg. hearing loss ([2]; NR before and after, 1 wk post noise, 16 kHz): 25 | Avg. hearing loss ([2]; NR before and after, 1 wk post noise, 32 kHz): 40 | Avg. hearing loss ([2]; NR before and after, 2 wks post noise, 8 kHz): 20 | Avg. hearing loss ([2]; NR before and after, 2 wks post noise, 16 kHz): 20 | Avg. hearing loss ([2]; NR before and after, 2 wks post noise, 32 kHz): 20 | Avg. hearing loss ([2]; NR before and after, 24 h post noise, 8 kHz): 22 | Avg. hearing loss ([2]; NR before and after, 24 h post noise, 16 kHz): 26 | Avg. hearing loss ([2]; NR before and after, 24 h post noise, 32 kHz): 44 | Avg. hearing loss ([2]; NR before and after, Baseline, 16 kHz): 13 | Avg. hearing loss ([2]; NR before and after, Baseline, 32 kHz): 19 | Avg. hearing loss ([2]; NR before and after, Pre-noise, 8 kHz): 16 | Avg. hearing loss ([2]; NR before and after, Pre-noise, 16 kHz): 18 | Avg. hearing loss ([2]; NR before and after, Pre-noise, 32 kHz): 28 | Avg. hearing loss ([2]; NR before, 1 wk post noise, 8 kHz): 15 | Avg. hearing loss ([2]; NR before, 1 wk post noise, 16 kHz): 23 | Avg. hearing loss ([2]; NR before, 1 wk post noise, 32 kHz): 23 | Avg. hearing loss ([2]; NR before, 2 wks post noise, 8 kHz): 18 | Avg. hearing loss ([2]; NR before, 2 wks post noise, 16 kHz): 18 | Avg. hearing loss ([2]; NR before, 2 wks post noise, 32 kHz): 23 | Avg. hearing loss ([2]; NR before, 24 h post noise, 8 kHz): 18 | Avg. hearing loss ([2]; NR before, 24 h post noise, 16 kHz): 25 | Avg. hearing loss ([2]; NR before, 24 h post noise, 32 kHz): 38 | Avg. hearing loss ([2]; NR before, Baseline, 16 kHz): 16 | Avg. hearing loss ([2]; NR before, Baseline, 32 kHz): 21 | Avg. hearing loss ([2]; NR before, Pre-noise, 8 kHz): 13 | Avg. hearing loss ([2]; NR before, Pre-noise, 16 kHz): 18 | Avg. hearing loss ([2]; NR before, Pre-noise, 32 kHz): 17 | protection from permanent hearing loss ([2]; all 3 frequencies (8000, 16,000, 32,000 Hz), NR i.p. twice daily 1000 mg/kg): similarly protected | neurite retraction (distance of spiral ganglia neurites from inner hair cells) ([3]; 24 hr after noise exposure): 4.3±4.5 μm | neurite retraction (distance of spiral ganglia neurites from inner hair cells) ([3]; 14 d after noise exposure): 2.5±3.5 μm | increase of tissue NAD levels [4]: 50%
